Reference: patent US7312248B2, “Control of parasites in animals by the use of novel trifluoromethanesulfonanilide oxime ether derivatives” (Schering-Plough Animal Health Corporation, priority 2004, dated 2007)
Read-outs that look alike come from different tables or passages of the source.

Experiments:
Assay type in all cases: in vivo
[1] = tested on: Brown Dog Tick (Rhipicephalus sanguineus); assay: Rapid screening protocol for topical application on brown dog ticks; details: 48 h; Laboratory 2 F data
[2] = tested on: cat flea (Ctenocephalides felis); assay: whole plant or invertebrate; details: Ctenocephalides felis
How it was run: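 Single-dose screen at 1.26 μg/cm^2: acetone solution dried for 24 h on a Coatasil-treated 159 mm^2 flask base, then 15 adult cat fleas aged 3-7 days per flask, four or more replicates, acetone control. Percent dead, meaning not moving or unable to right themselves, recorded after 8, 24 and/or 48 h at 25 °C and 75% RH.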

[3] = tested on: Haemonchus contortus; assay: Haemonchus contortus larvacidal (larval development) assay; details: 144 h, read-out: Haemonchus contortus LD99
How it was run: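 Nematode eggs placed on agar containing compound (12 two-fold dilutions, final 0.024–50 μg/ml) and left 6 days to develop to L3. LD99 is the lowest concentration inhibiting development of 99% of larvae, derived from well titre (2^n−1) and top concentration.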

[4] = tested on: Brown Dog Tick (Rhipicephalus sanguineus); assay: Dose response protocol for topical application on brown dog ticks (LD50); details: 24 h mortality
Protocol: e) Dose response protocol for topical application on brown dog ticks (Rhipicephalus sanguineus): The test determines the level of insecticidal activity of sample compounds or formulations when applied topically on brown dog ticks. Sample compounds were stored prior to use in a freezer (−5±1° C.), unless otherwise specified.
• Mortality: A tick is defined as dead after it gives no apparent response when touched lightly or gently breathed upon, while observed for 30 seconds. • LD50 (Lethal Dose 50): The dose of a topically applied treatment at which 50% of the dog ticks are killed. • Reference compound: To assess an experimental compound for significant acaricidal activity a single dose level is chosen, which is based upon known results from previous experiments using a commercially available active i.e., a reference compound. The reference compound selected is one in common use, and one that has a similar mode of action against the Brown Dog Tick (i.e., the test species). • Recovery container: A recovery container consists of a 500 ml round plastic container measuring 115 mm diameter and 70 mm height, with a tight fitting lid that has 10 small (˜1 mm) holes inserted for air exchange. A 90 mm diameter piece of filter paper was placed on the bottom of the container and moistened with 1 mL of de-stilled water.
Adult, mixed sex, Brown Dog Ticks (Rhipicephalus sanguineus) were reared as follows: (i) cultured, (ii) transferred unfed, to a testing laboratory, and (iii) then maintained under controlled conditions (i.e., temp. 18°±2° C., humidity 75±5% RH). The ticks used were selected for vigor prior to testing, i.e., capable of actively walking and responsive to being touched or gently breathed upon.
During the testing, the temperature was maintained at 25±1° C., and the humidity was ambient. Seven dose levels (concentrations) of sample compound, in the form of serial dilutions in acetone, were derived from a pilot study and covered a range that produced very low to very high mortality. Groups of ten ticks were treated topically (on the abdomen) with 1 μL of a single dose level of the sample compound. Each test was replicated four times, i.e., employing a total of 40 ticks per dose level of each sample compound. As a control, ten ticks were treated with solvent only (acetone) for each test. Following the treatment, the ticks were held in recovery containers maintained under appropriate rearing conditions for 24 hours. Mortality resulting from the treatments was recorded at 24 hours. […] Press, London (1971).]

[5] = tested on: cat flea (Ctenocephalides felis); assay: Ctenocephalides felis adulticide assay: dose response (LC50)
How it was run: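 Groups of 15 adult cat fleas, 3–7 days post-emergence, were exposed for 24 h at 25° C and 75% humidity to glass flask bases coated with six serial doses in acetone and dried for 24 h. Mortality was scored at 8 and 24 h, and LC50 was the surface-treatment concentration killing 50%.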

[6] = 8 h, read-out: C. felis Mortality (%) 8 h, 8 h, Laboratory 2 B data
[7] = 24 h, read-out: C. felis Mortality (%) 24 h, 24 h, Laboratory 2 B data

SMILES	R. sanguineus Mortality (%) 48 h [1] [%]	mortality at 1.26 µg/cm2, 1.26 µg/cm2 ([2]; 24 h, read-out: C. felis Mortality (%) 24 h, 24 h, Laboratory 1 A data) [%]	IC99 [3] [µg/mL]	R. sanguineus LD50 [4] [μg/tick]	C. felis LC50 ([5]; Laboratory 1 C data) [μg/cm^2]	C. felis LC50 ([5]; Laboratory 2 D data)	mortality at 1.26 µg/cm2, 1.26 µg/cm2 [2, 6] [%]	mortality at 1.26 µg/cm2, 1.26 µg/cm2 [2, 7] [%]
CC/C(=N\Oc1ccc(F)cc1)c1cc(Cl)ccc1NS(=O)(=O)C(F)(F)F [Compound 130, N-{4-chloro-2-[1-(4-fluorophenoxyimino)propyl]phenyl}trifluoromethanesulfonamide]	100	100	1.5	1.5	0.2	0.03 μg/cm^2		
CC(C)ON=C(c1cc(Cl)ccc1NS(=O)(=O)C(F)(F)F)C1CCCCC1 (racemic) [Compound 210, N-[4-chloro-2-(cyclohexylisopropoxyiminomethyl)phenyl]trifluoromethanesulfonamide]	100			2.7		0.1^D μg/cm^2	66	100
C/C(=N\OCC1CCCC1)c1cc(Cl)ccc1NS(=O)(=O)C(F)(F)F [Compound 189]	100			2.2		0.01^D μg/cm^2	91	97
CCC/C(=N\OCC)c1cc(Cl)ccc1NS(=O)(=O)C(F)(F)F [Compound 193, N-[4-chloro-2-(1-ethoxyiminobutyl)phenyl]trifluoromethanesulfonamide]	95			1.2		0.01^D μg/cm^2	88	100
C/C(=N\OCC1CC1)c1cc(Cl)ccc1NS(=O)(=O)C(F)(F)F [Compound 187, N-[4-chloro-2-(1-cyclopropylmethoxyiminoethyl)phenyl]trifluoromethanesulfonamide]	100			1.0	0.1	0.005 μg/cm^2	100	100
CC/C(=N\OCC1CC1)c1cc(Cl)ccc1NS(=O)(=O)C(F)(F)F [Compound 196, N-[4-chloro-2-(1-cyclopropylmethoxyiminopropyl)phenyl]trifluoromethanesulfonamide]	100			1.2		0.008^D μg/cm^2	96	100
C#CCO/N=C(\C)c1cc(Cl)ccc1NS(=O)(=O)C(F)(F)F [Compound 202]	100			0.9		0.01^D μg/cm^2	100	100
